The source of these data is US20210308113A1, “METHOD OF ADMINISTERING A […] EFFECTIVE AMOUNT OF 5-[[4-[2-[5-(1-HYDROXYETHYL)PYRIDIN-2-YL]ETHOXY]PHENYL]METHYL]-1,3-THIAZOLIDINE-2,4-DIONE” (MINORYX THERAPEUTICS S.L., priority 2018, published 2021).

Molecules are shown by their SMILES. pIC50: −log10 of the molar value. Read-outs that look alike come from different tables or passages of the source.

Data set [1] addresses T1, mitochondrial pyruvate carrier (MPC) (Homo sapiens, UniProt O95563+Q9Y5U8).
T1 construct: expressed in transfected cells
T1 sequence (O95563 1-127): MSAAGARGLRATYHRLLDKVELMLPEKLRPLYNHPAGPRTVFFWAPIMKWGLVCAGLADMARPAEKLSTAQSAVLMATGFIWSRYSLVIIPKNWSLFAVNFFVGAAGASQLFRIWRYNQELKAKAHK
T1 sequence (Q9Y5U8 1-109): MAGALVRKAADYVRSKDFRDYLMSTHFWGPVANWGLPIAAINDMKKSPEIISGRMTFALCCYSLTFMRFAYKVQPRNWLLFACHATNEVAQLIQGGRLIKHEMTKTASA
The data set is described as follows: BRET assay of MPC inhibitory activity in HEK cells expressing MPC2-Rluc8 and MPC1-Venus. Format: cell-based. As for the experimental part: The MPC is a heterodimer composed of two subunits, MPC1 and MPC2. MPC1 and MPC2 interact to form an active carrier. In the assay, MPC2 was fused to Rluc8 (Donor) and MPC1 to Venus (Acceptor). These chimeric proteins were stably expressed in HEK cells. BRET activity was measured following addition of coelenterazine in the culture medium. Coelenterazine enters into cells and in contact with luciferase Rluc8 emits light, which activates the emission of fluorescence by the Acceptor, provided the distance between the Donor and Acceptor is <[…]. If the distance between Donor and Acceptor is >[…], no BRET activity is measured. The level of BRET activity reflects a change in the conformation of the MPC: it is high when the carrier is in a closed conformation, low when the carrier is at rest and intermediary when it transports pyruvate. In this case, the BRET activity is the mean value between the BRET value when the carrier is at rest (Maximal distance between Donor and Acceptor) and the BRET value when it is closed (Shortest distance between Donor and Acceptor)
A wide range of concentrations of each of the tested compounds was used from 1 nM to 100 μM.
(In general: BRET reads energy transfer from a luciferase to a nearby fluorophore.)

Another data set relates to HeLa cells. The data set is described as follows: Seahorse oxygen consumption rate (OCR) in HeLa cells. In kind it is cell-based. The note with it: Homo sapiens, 1 h incubation at 37° C. The protocol: (§1) To determine whether Compound (1) HCl has any effect on pyruvate-mediated mitochondrial respiration, the extracellular flux analyzer Seahorse was used as described in Compan et al. Seahorse experiments were performed in the following cell lines: HeLa (Cervix cancer cells), A549 (lung cancer cells), wild type MDA MB 231, and MDA MB 231 in which MPC2 has been deleted, leading to inactivation of the MPC (MDA MB231 KO). MDA MB231 cells are epithelial breast cancer cells. Cells were incubated with increasing concentrations of the compounds for one hour at 37° C. before oxygen consumption rate (OCR) measurements. The Seahorse analyzer allowed to measure basal and maximal respiration measured upon depolarization with 1 μM CCCP. Effects of Compound (1) HCl on oxygen consumption rates (OCR) in HeLa cells (FIG. 3A) and A549 cells (FIG. 3B) in a representative experiment of n=3. OCR values are expressed as ratios of OCR in the presence of different concentrations of compounds over the OCR in PBS alone.

In a further data set the test system is adiponectin. In words: Plasma adiponectin by ELISA in Sprague Dawley rats as a measure of PPAR gamma engagement. The note with it: 7 days, 54 mg/Kg/day, plasma 1 h after last administration, vs vehicle p<0.0001. In kind it is in vivo, rat. The protocol: Evaluation of effect of Compound (1) HCl on adiponectin was performed in Sprague Dawley wild type rats as a measure of PPAR gamma engagement. The rats were treated for 7 days with increasing doses of Compound (1) HCl at 54 mg/Kg/day. Plasma were obtained at 1 h after the last Compound (1) HCl administration. Adiponectin levels were measured by ELISA. Results were represented as mean+standard error of the mean of n=8. Data were analyzed by Kruskal-Wallis followed by the Dunn post-hoc test versus the vehicle group (****, p<0.0001).

The next data set deals with MDA MB231 KO cells. The data set is described as follows: Seahorse oxygen consumption rate (OCR) in MDA MB231 KO cells (MPC2 deleted). Format: cell-based. The conditions noted are these: MPC activity genetically deleted. As for the experimental part:
as §1, with “CCCP. […] The KO cells have been deleted” for “CCCP. Effects”, “of the MPC2 gene” for “of Compound (1) HCl on oxygen consumption rates (OCR) in HeLa cells (FIG. 3A)”, “and therefore they display no MPC activity. The top panel show” for “and A549 cells (FIG. 3B) in”, “of either wild type (WT) or KO cell lines. […]” for “of n=3.”, “of the tested compound” for “of compounds”

Another data set deals with A549 cells. The data set is described as follows: Seahorse oxygen consumption rate (OCR) in A549 cells. In kind it is cell-based. The conditions noted are these: Homo sapiens, 1 h incubation at 37° C. The protocol:
as §1

For data set [2], the system named is wild type MDA MB231 cells. The data set is described as follows: Seahorse oxygen consumption rate (OCR) in wild type MDA MB231 cells. Format: cell-based. As for the experimental part: as §1, with “CCCP. […] The KO cells have been deleted” for “CCCP. Effects”, “of the MPC2 gene” for “of Compound (1) HCl on oxygen consumption rates (OCR) in HeLa cells (FIG. 3A)”, “and therefore they display no MPC activity. The top panel show” for “and A549 cells (FIG. 3B) in”, “of either wild type (WT) or KO cell lines. […]” for “of n=3.”, “of the tested compound” for “of compounds”

Data set [3] is described as follows: Multiple ascending dose (MAD) study, pharmacokinetics in human subjects. In kind it is in vivo. As for the experimental part:
The mean AUC0-tau ss (% CV) (135 μg·h/mL (20)) and Cmaxss (% CV) (9488 ng/ml (17)) was determined at the steady state day 8 in case 135 mgs. The mean AUC0-tau ss (% CV) (299 μg·h/mL (21) and Cmaxss(% CV) (17200 ng/ml (18) was determined at the steady state day 8 in case 270 mgrs.
Across all ascending dose studies in humans the increase in dose is linearly related to the increase in AUC. Because of the inter subject variability in clearance it is required to select a start dose which is not excessively above the 200 μg·h/mL target AUCs.
The PK data from the MAD study was used to generate a start dose which is most likely no cause toxicity or adverse events in subjects. A dose of 150 mg was chosen as it would give a geometric mean AUCtau of 167 μg·h/mL SD 33 with a 95% confidence interval of 102-232 μg·h/mL. At this dose approximated 75% of patients will be below 200 μg·h/mL and it is unlikely that any patient will exceed 240 μg·h/mL.

Data set [4] deals with MCD diet fed C57BL6/J mice. In words: 7-week Methionine Choline Deficient (MCD) diet NASH mouse model. Format: in vivo. The protocol: The preventive effects of Compound (1) HCl was evaluated in a 7-week Methionine Choline Deficient (MCD) diet NASH mouse model (Verdelho Machado et al.). After the acclimation period, C57BL6/J male mice (n=20) were weighed and randomized into 2 homogenous treatment groups based on body weight (n=10/group), put on a MCD diet, and treated BID orally with vehicle or Compound (1) HCl for 7 weeks. Compound (1) HCl was dosed 62.5 mg/kg BID orally by gavage. […] Body weight was measured 3 times/week until the end of the experimental phase. At 7 weeks of diet/treatment, mice were weighed and treated at ˜08:00 am in the morning, then bled (maximal volume/EDTA) at […]. Plasma was then immediately isolated and stored at −80° C. prior to assay plasma ALT and AST. The plasma volume left over was stored at −80° C. for eventual additional analysis. After blood collection, the mice were sacrificed by cervical dislocation under isoflurane anesthesia and exsanguinated with sterile saline. A NAFLD scoring system (NAS) adapted from Kleiner et al. (Hepatology. 41(6):1313-1321 (2005)) using the criteria described in the Table 2 below: Several other histopathological observations described in clinical human cases and originally reported in the NAS scoring system published by Kleiner et al. were not observed in this animal study, such as lipogranuloma, acidophil bodies, megamitochondria, and pigmented macrophages. Therefore, it was elected not to include them in the scoring system described above. An individual mouse NAS total score was calculated for each animal by summing up the score for (1) hepatocellular steatosis, (2) liver inflammation, (3) lobular fibrosis, and (4) hepatocyte ballooning. Histology analysis was performed (oil red 0, H&E and Sirius Red staining) for NAFLD scoring system (NAS) for liver steatosis, inflammation, fibrosis and hepatocyte ballooning.

Take `CN(CCOc1ccc(CC2SC(=O)NC2=O)cc1)c1ccccn1` (stereo not drawn) [Rosiglitazone, rosiglitazone, reference compound]: the pIC50 (as a rule, the IC50 on a negative log10 scale, so that one unit is a factor of ten) in data set [1] was 5.70.

`CC(O)c1ccc(CCOc2ccc(CC3SC(=O)NC3=O)cc2)nc1.Cl` (stereo not drawn) [Compound (1) HCl, 5-[[4-[2-[5-(1-hydroxyethyl)pyridin-2-yl]ethoxy]phenyl]methyl]-1,3-thiazolidine-2,4-dione hydrochloride]: the pIC50 in the data set with HeLa cells was ~5.30; in data set [1] (BRET assay, HEK cells, read-out: IC50 MPC inhibitory activity), 5.39; in the data set on A549 cells, ~5.30. In addition, the plasma adiponectin levels result in the data set with adiponectin was “significantly increased”. In addition, the entries for the “effect on oxygen consumption” value (in the data set on MDA MB231 KO cells; in data set [2]) were “does not inhibit oxygen consumption” and “inhibits oxygen consumption in a MPC dependent manner”, respectively. For the same compound, the “change in clearance with time” value in data set [3] (human subjects, 135 mg and 270 mg) is reported as “no change in clearance with time”. Further, the “mean Cmaxss” value in data set [3] (human subjects, 135 mg, steady state day 8) was 9488 ng/mL; in data set [3] (human subjects, 270 mg, steady state day 8), 17200 ng/mL. Further, the AUC is 167 µg·h/mL in data set [3] (human, plasma, oral, start dose 150 mg, generated from MAD PK data, SD 33, 95% CI 102-232, read-out: geometric mean AUCtau); 135 µg·h/mL in data set [3] (in vivo, human subjects, 135 mg, steady state day 8, read-out: mean AUC0-tau ss); 299 µg·h/mL in data set [3] (in vivo, human subjects, 270 mg, steady state day 8, read-out: mean AUC0-tau ss). Moreover, the “Cmin ss associated with the target AUC0-tau ss” value in data set [3] (line of best fit of day 8 MAD data, target AUC0-tau ss 200 μg·h/mL) was 5716 ng/mL. The hepatic cholesterol levels result in data set [4] (62.5 mg/kg BID orally, 7 weeks) was “did not show a change”. In addition, the body weight loss entry in data set [4] (62.5 mg/kg BID orally, day 14 to day 50) is “less severe decline in body weight loss”. Besides, in data set [4] (7 weeks), the liver inflammation entry was “total disappearance of inflammation”. Besides, the “oil red o staining %” value in data set [4] (7 weeks, vs vehicle p<0.001) is “extremely low”. The steatosis score entry in data set [4] (7 weeks, vs vehicle p<0.001) is recorded as “blunted steatosis score”.

In the case of `CC(O)c1ccc(CCOc2ccc(CC3SC(=O)NC3=O)cc2)nc1` (stereo not drawn) [Compound (1), 5-[[4-[2-[5-(1-hydroxyethyl)pyridin-2-yl]ethoxy]phenyl]methyl]-1,3-thiazolidine-2,4-dione], in data set [3] (humans), the linearity of pharmacokinetics result is “linear pharmacokinetics” and the oral bioavailability result was “orally bioavailable”.
